PubChem BioAssay (NCI)
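48-hour exposure; five concentrations; linearly interpolated endpoints. GI50: concentration for 50% inhibition of growth. TGI is the concentration that stops growth completely.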

Columns and labels:
Experiment in all cases: DTP human tumour cell line panel, 48 h
786-0 renal = tested on: 786-0 renal
ACHN renal = tested on: ACHN renal
OVCAR-4 ovarian = tested on: OVCAR-4 ovarian
SF-268 CNS = tested on: SF-268 CNS
SF-539 CNS = tested on: SF-539 CNS
SK-OV-3 ovarian = tested on: SK-OV-3 ovarian
SN12C renal = tested on: SN12C renal
SW-620 colon = tested on: SW-620 colon
UACC-257 melanoma = tested on: UACC-257 melanoma
UO-31 renal = tested on: UO-31 renal

SMILES | GI50 (786-0 renal) [µM] | TGI (786-0 renal) [µM] | GI50 (ACHN renal) [µM] | TGI (ACHN renal) [µM] | GI50 (OVCAR-4 ovarian) [µM] | TGI (OVCAR-4 ovarian) [µM] | GI50 (SF-268 CNS) [µM] | TGI (SF-268 CNS) [µM] | GI50 (SF-539 CNS) [µM] | TGI (SF-539 CNS) [µM] | GI50 (SK-OV-3 ovarian) [µM] | TGI (SK-OV-3 ovarian) [µM] | GI50 (SN12C renal) [µM] | TGI (SN12C renal) [µM] | GI50 (SW-620 colon) [µM] | TGI (SW-620 colon) [µM] | GI50 (UACC-257 melanoma) [µM] | TGI (UACC-257 melanoma) [µM] | GI50 (UO-31 renal) [µM] | TGI (UO-31 renal) [µM]
CC(C)=CCc1cc(O)cc2c1OC(C=C(C)C)C1=C2C(=O)C2=C(NCCS2(=O)=O)C1=O (stereo not drawn) | 2.93 | 7.11 | 3.18 | 10.6 | 0.811 | 3.06 | 2.34 | 8.2 | 2.58 | 4.82 | 3.8 | 10.4 | 0.414 | 2.02 | 2.32 | 5.78 | 2.3 | 4.61 | 2.03 | 6.05
Cn1cnc([N+](=O)[O-])c1S(=O)(=O)Oc1ccccc1 | 25.1 | 55.6 | 1.8 | 3.37 | 3.22 | 15.1 | 16.5 | 48.2 | 14 | 29.8 | 97.5 | > 100 | 21.5 | > 71.7 | 1.92 | 4.34 | 3.84 | 16.3 | 1.68 | 3.47
CC(=O)O[C@H]1CCC2[C@@H]3CCC4=C(O)c5nocc5C[C@]4(C)C3CC[C@@]21C (stereo partly drawn) |  | > 100 |  | > 100 |  | > 100 |  | > 100 |  | > 100 |  | > 100 |  | > 100 |  | > 100 |  | > 100 |  | > 100
Oc1cc(O)c2c(c1)OC(c1ccc(O)c(O)c1)C(OC1(c3cc(O)c(O)c(O)c3)Oc3cc(O)cc(O)c3C(O)C1O)C2 (stereo not drawn) |  | 67.8 |  | > 100 |  | 67.3 |  | 66.2 |  | > 74.9 |  | > 100 |  | 46.2 |  | 60.4 |  | > 100 |  | 50.2
Nc1c(C(=O)Nc2cccc(Br)c2)sc2nc3c(cc12)C(=O)CCC3 | 0.86 | > 100 | 15.7 | > 100 | 28.5 | > 100 | 19.5 | > 100 | 0.448 | > 100 | 0.501 | > 100 | 0.779 | > 100 | 0.426 | > 100 | > 100 | > 100 | 3.07 | > 100
COc1ccc(-c2cc(-c3ccccc3)c(C#N)c(=O)n2C2OC(CO)C(O)C(O)C2O)cc1 (stereo not drawn) |  | > 100 |  | > 100 |  | > 100 |  | > 100 |  | > 100 |  | > 100 |  | > 100 |  | > 100 |  | > 100 |  | > 100
C=CC(=O)N1CCC(C2CCNc3c(C(N)=O)c(-c4ccc(Oc5ccccc5)cc4)nn32)CC1 (stereo not drawn) | 12.2 | > 100 | 2.32 | 23.6 | 6.25 | 95.4 | 6.98 | 45 | 13.5 | 43 | 0.572 | 5.33 | 13.4 | > 100 | 31.8 | > 100 | 20.3 | 51.2 | 1.94 | 24.3
CC1(C)OCCn2c1nc1c(N3CCOCC3)nc(-c3cnc(N)nc3)nc12 | 0.344 | 5.09 | 0.274 | > 100 | 0.278 | 8.82 | 0.426 | > 100 | 0.316 | 2.55 | 0.102 | 0.495 | 0.301 | > 48.3 | 0.399 | > 100 | 0.197 | 1.97 | 0.0912 | 1.11
CCN(CC)CCOc1ccc(/C=C2\CC3C4CC=C5C[C@@H](O)CC[C@]5(C)C4CC[C@]3(C)C2=O)cc1OC (stereo partly drawn) | 1.92 | 3.66 | 1.77 | 3.32 | 18.8 | 45.9 | 7.39 | > 57.3 | 3.38 | 12.7 | 8.64 | > 58.3 | 3.54 | 19.4 | 2.54 | > 20.5 | 2.3 | 5.5 |  | > 100
C=CCCCCCCCCCCC1(O)C=CC2=[N+](CCCCCN=C(N)N)CCCN21 (stereo not drawn) | 7.47 | 29.8 | 11.5 | 24.5 | 4.84 | 19.9 | 7.7 | 26.7 | 2.84 | 7.71 | 19.1 | 38.5 |  | 11.3 | 8.11 | 24.2 | 22.7 | > 55.7 | 17 | 36.5
Cc1nc2ccccc2nc1-c1ccc(N=[N+]([O-])c2ccc(-c3nc4ccccc4nc3C)cc2)cc1 |  | > 100 |  | > 100 |  | > 100 |  | > 100 |  | > 100 |  | > 82.5 |  | > 100 |  | > 100 |  | > 100 |  | > 100
CCOc1ccc2nc(S/C(=C/C=C(C#N)C#N)c3ccc(C)cc3)sc2c1 | 21.9 | 46.8 | 18.4 | 36.9 | 94.4 | > 100 | 30 | > 100 | 26 | 57.2 | > 100 | > 100 | 18.1 | 46.4 | 5.35 | 35.8 | > 100 | > 100 | 36.2 | > 100
CCCCCCNC(=O)c1nc(-c2ccccc2)oc1Cc1ccc(OP(=O)(O)O)cc1 | 17.9 | 35.4 | 15.5 | 29.5 | 16.6 | 30.8 | 17.3 | 35.4 | 16.9 | 32.2 | 20 | 47.6 | 17 | 32.9 | 16.8 | 33.4 | 17.6 | 35.6 | 12.6 | 26.8
